“Also recorded” adds a separate entry of the source.
biological target: CRBN (Homo sapiens (Human), UniProt Q96SW2); test: Cellular CRBN dBET6 displacement assay (BRD4BD2-GFP/mCherry reporter cells); format: cell-based; details: Flip-In 293 cells stably expressing BRD4BD2-GFP, 100 nM dBET6, 5 hours
Procedure: BRD4BD2 were subcloned into mammalian pcDNA5/FRT Vector (Ampicillin and Hygromycin B resistant) modified to contain MCS-eGFP-P2A-mCherry. […] Following a 2-3 passage cycle, FACS (FACSAria™ II, BD) was used to enrich for cells expressing eGFP and mCherry.
Signal from minimal 3000 events per well was acquired and the eGFP and mCherry florescence monitored. Data was analyzed using FlowJo® (FlowJo®, LCC). […] The eGFP protein abundance relative to mCherry was then quantified as a ten-fold amplified ratio for each individual cell using the formula: 10×eGFP/mCherry. The median of the ratio was then calculated per set, normalized to the median of the DMSO ratio.
This assay provided a readout of cellular CRBN binding impacted by the permeability of the molecule tested.

Chain of CRBN (Q96SW2 whole entry): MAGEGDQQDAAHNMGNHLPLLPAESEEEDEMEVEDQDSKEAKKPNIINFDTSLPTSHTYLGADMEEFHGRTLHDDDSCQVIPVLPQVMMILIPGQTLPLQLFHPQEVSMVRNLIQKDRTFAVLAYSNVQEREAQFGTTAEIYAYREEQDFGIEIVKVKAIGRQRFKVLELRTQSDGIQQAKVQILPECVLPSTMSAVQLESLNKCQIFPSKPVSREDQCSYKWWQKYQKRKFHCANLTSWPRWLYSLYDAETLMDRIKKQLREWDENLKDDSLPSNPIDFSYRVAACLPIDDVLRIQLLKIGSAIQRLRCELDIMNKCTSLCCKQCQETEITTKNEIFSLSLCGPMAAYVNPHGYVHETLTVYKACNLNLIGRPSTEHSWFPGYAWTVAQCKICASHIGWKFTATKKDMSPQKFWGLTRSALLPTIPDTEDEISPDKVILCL

Row | Compound | Cellular CRBN-BRD4 dBET6 displacement EC50
1 | O=C1CCC(N2Cc3c(Nc4ccnc(NCCCN5CCCC5=O)n4)cccc3C2=O)C(=O)N1 (centres unmarked) [Compound 22, 3-(1-oxo-4-((2-((3-(2-oxopyrrolidin-1-yl)propyl)amino)pyrimidin-4-yl)amino)isoindolin-2-yl)piperidine-2,6-dione] | inactive; also recorded: Not binding
2 | COc1cc(F)ccc1-c1nccc(NCC(=O)Nc2cccc3c2CN(C2CCC(=O)NC2=O)C3=O)n1 (centres unmarked) [Compound 34, N-(2-(2,6-dioxopiperidin-3-yl)-1-oxoisoindolin-4-yl)-2-((2-(4-fluoro-2-methoxyphenyl)pyrimidin-4-yl)amino)acetamide] | inactive; also recorded: Not binding
3 | NS(=O)(=O)c1ccc(Nc2nccc(Nc3cccc4c3CN(C3CCC(=O)NC3=O)C4=O)n2)cc1 (centres unmarked) [Compound 40, 4-((4-((2-(2,6-dioxopiperidin-3-yl)-1-oxoisoindolin-4-yl)amino)pyrimidin-2-yl)amino)benzenesulfonamide] | inactive; also recorded: Not binding

same assay, conditions: Flip-In 293 cells stably expressing BRD4BD2-GFP, 100 nM dBET6, 5 hours; read-out: Cellular CRBN-BRD4 dBET6 displacement EC50

Row | Compound | EC50 [µM]
4 | O=C1CCC(N2Cc3c(Nc4ccnc(N5CCC[C@H]5CO)n4)cccc3C2=O)C(=O)N1 (stereo partly drawn) [Compound 29, 3-(4-((2-((S)-2-(hydroxymethyl)pyrrolidin-1-yl)pyrimidin-4-yl)amino)-1-oxoisoindolin-2-yl)piperidine-2,6-dione] | 8.14
5 | O=C1CCC(N2Cc3c(Nc4ccnc(N5CCC[C@@H]5CO)n4)cccc3C2=O)C(=O)N1 (stereo partly drawn) [Compound 30, 3-(4-((2-((R)-2-(hydroxymethyl)pyrrolidin-1-yl)pyrimidin-4-yl)amino)-1-oxoisoindolin-2-yl)piperidine-2,6-dione] | 8.15
6 | O=C1CCC(N2Cc3c(Nc4ccnc(-c5ccc(-c6ccccc6)cc5)n4)cccc3C2=O)C(=O)N1 (centres unmarked) [Compound 31, 3-(4-((2-([1,1′-biphenyl]-4-yl)pyrimidin-4-yl)amino)-1-oxoisoindolin-2-yl)piperidine-2,6-dione] | 8.66
7 | COc1cccc(-c2nccc(Nc3cccc4c3CN(C3CCC(=O)NC3=O)C4=O)n2)c1 (centres unmarked) [Compound 32, 3-(4-((2-(3-methoxyphenyl)pyrimidin-4-yl)amino)-1-oxoisoindolin-2-yl)piperidine-2,6-dione] | 4.16
8 | CC(C)C(CO)Nc1nccc(Nc2cccc3c2CN(C2CCC(=O)NC2=O)C3=O)n1 [Compound 37, 3-(4-((2-(((R)-1-hydroxy-3-methylbutan-2-yl)amino)pyrimidin-4-yl)amino)-1-oxoisoindolin-2-yl)piperidine-2,6-dione] | 9.74
9 | O=C1CCC(N2Cc3c(Nc4ccnc(Nc5ccc6c(c5)CCN6)n4)cccc3C2=O)C(=O)N1 (centres unmarked) [Compound 43, 3-(4-((2-(indolin-5-ylamino)pyrimidin-4-yl)amino)-1-oxoisoindolin-2-yl)piperidine-2,6-dione] | 25.3
10 | COc1ccccc1-c1nc(Nc2cccc3c2CN(C2CCC(=O)NC2=O)C3=O)c2nc[nH]c2n1 (centres unmarked) [Compound 47, 3-(4-((2-(2-methoxyphenyl)-9H-purin-6-yl)amino)-1-oxoisoindolin-2-yl)piperidine-2,6-dione] | 27.1
11 | O=C1CCC(N2Cc3c(Nc4nc(-c5ccc(-c6ccccc6)cc5)nc5[nH]cnc45)cccc3C2=O)C(=O)N1 (centres unmarked) [Compound 48, 3-(4-((2-([1,1′-biphenyl]-4-yl)-9H-purin-6-yl)amino)-1-oxoisoindolin-2-yl)piperidine-2,6-dione] | 12.4
12 | COc1cc(F)ccc1-c1nc(Nc2cccc3c2CN(C2CCC(=O)NC2=O)C3=O)c2nc[nH]c2n1 (centres unmarked) [Compound 49, 3-(4-((2-(4-fluoro-2-methoxyphenyl)-9H-purin-6-yl)amino)-1-oxoisoindolin-2-yl)piperidine-2,6-dione] | 12.4
13 | O=C1CCC(N2Cc3c(Nc4nc(-c5ccc(F)cc5)nc5[nH]cnc45)cccc3C2=O)C(=O)N1 (centres unmarked) [Compound 50, 3-(4-((2-(4-fluorophenyl)-9H-purin-6-yl)amino)-1-oxoisoindolin-2-yl)piperidine-2,6-dione] | 8.29
14 | COc1cc(OC)cc(-c2nc(Nc3cccc4c3CN(C3CCC(=O)NC3=O)C4=O)c3nc[nH]c3n2)c1 (centres unmarked) [Compound 51, 3-(4-((2-(3,5-dimethoxyphenyl)-9H-purin-6-yl)amino)-1-oxoisoindolin-2-yl)piperidine-2,6-dione] | 6.83

Further lines, results first:

Row | EC50 [µM] | Compound
15 | 3.63 | O=C1CCC(N2Cc3c(Nc4ccnc(Nc5ccc6c(c5)OCCO6)n4)cccc3C2=O)C(=O)N1 (centres unmarked) [Compound 19, 3-(4-((2-((2,3-dihydrobenzo[b][1,4]dioxin-6-yl)amino)pyrimidin-4-yl)amino)-1-oxoisoindolin-2-yl)piperidine-2,6-dione]
16 | 3.25 | Cc1cc(C)c(Nc2nccc(Nc3cccc4c3CN(C3CCC(=O)NC3=O)C4=O)n2)c(C)c1 (centres unmarked) [Compound 28, 3-(4-((2-(mesitylamino)pyrimidin-4-yl)amino)-1-oxoisoindolin-2-yl)piperidine-2,6-dione]
17 | 2.69 | COc1ccc(Nc2nccc(Nc3cccc4c3CN(C3CCC(=O)NC3=O)C4=O)n2)cc1 (centres unmarked) [Compound 18, 3-(4-((2-((4-methoxyphenyl)amino)pyrimidin-4-yl)amino)-1-oxoisoindolin-2-yl)piperidine-2,6-dione]
18 | 2.6 | COc1ccccc1Nc1nccc(Nc2cccc3c2CN(C2CCC(=O)NC2=O)C3=O)n1 (centres unmarked) [Compound 38, 3-(4-((2-((2-methoxyphenyl)amino)pyrimidin-4-yl)amino)-1-oxoisoindolin-2-yl)piperidine-2,6-dione]
19 | 2.59 | COc1cc(F)ccc1-c1nccc(Nc2cccc3c2CN(C2CCC(=O)NC2=O)C3=O)n1 (centres unmarked) [Compound 33, 3-(4-((2-(4-fluoro-2-methoxyphenyl)pyrimidin-4-yl)amino)-1-oxoisoindolin-2-yl)piperidine-2,6-dione]
20 | 2.31 | O=C1CCC(N2Cc3c(Nc4ccnc(Nc5ccccc5F)n4)cccc3C2=O)C(=O)N1 (centres unmarked) [Compound 21, 3-(4-((2-((2-fluorophenyl)amino)pyrimidin-4-yl)amino)-1-oxoisoindolin-2-yl)piperidine-2,6-dione]
21 | 2.24 | O=C1CCC(N2Cc3c(Nc4ccnc(-c5cc6ccccc6o5)n4)cccc3C2=O)C(=O)N1 (centres unmarked) [Compound 36, 3-(4-((2-(benzofuran-2-yl)pyrimidin-4-yl)amino)-1-oxoisoindolin-2-yl)piperidine-2,6-dione]
22 | 2.06 | O=C1CCC(N2Cc3c(Nc4ccnc(Nc5ccc6ccccc6c5)n4)cccc3C2=O)C(=O)N1 (centres unmarked) [Compound 45, 3-(4-((2-(naphthalen-2-ylamino)pyrimidin-4-yl)amino)-1-oxoisoindolin-2-yl)piperidine-2,6-dione]
23 | 1.86 | COc1ccc(-c2nccc(Nc3cccc4c3CN(C3CCC(=O)NC3=O)C4=O)n2)c(OC)c1 (centres unmarked) [Compound 35, 3-(4-((2-(2,4-dimethoxyphenyl)pyrimidin-4-yl)amino)-1-oxoisoindolin-2-yl)piperidine-2,6-dione]
24 | 1.35 | O=C1CCC(N2Cc3c(Nc4ccnc(Nc5ccc6c(c5)CCC6)n4)cccc3C2=O)C(=O)N1 (centres unmarked) [Compound 24, 3-(4-((2-((2,3-dihydro-1H-inden-5-yl)amino)pyrimidin-4-yl)amino)-1-oxoisoindolin-2-yl)piperidine-2,6-dione]
25 | 1.26 | CC(=O)c1ccc(-c2nccc(Nc3cccc4c3CN(C3CCC(=O)NC3=O)C4=O)n2)cc1 (centres unmarked) [Compound 20, 3-(4-((2-(4-acetylphenyl)pyrimidin-4-yl)amino)-1-oxoisoindolin-2-yl)piperidine-2,6-dione]
26 | 1.25 | CN(c1ccccc1)c1nccc(Nc2cccc3c2CN(C2CCC(=O)NC2=O)C3=O)n1 (centres unmarked) [Compound 27, 3-(4-((2-(methyl(phenyl)amino)pyrimidin-4-yl)amino)-1-oxoisoindolin-2-yl)piperidine-2,6-dione]
27 | 1.13 | O=C1CCC(N2Cc3c(Nc4ccnc(Nc5ccc6c(c5)-c5ccccc5C6)n4)cccc3C2=O)C(=O)N1 (centres unmarked) [Compound 46, 3-(4-((2-((9H-fluoren-3-yl)amino)pyrimidin-4-yl)amino)-1-oxoisoindolin-2-yl)piperidine-2,6-dione]
28 | 0.913 | O=C1CCC(N2Cc3c(Nc4ccnc(NC56CC7CC(CC(C7)C5)C6)n4)cccc3C2=O)C(=O)N1 (centres unmarked) [Compound 44, 3-(4-((2-(((3s,5s,7s)-adamantan-1-yl)amino)pyrimidin-4-yl)amino)-1-oxoisoindolin-2-yl)piperidine-2,6-dione]

same assay, conditions: unit printed as 'M' in the text (Table 1 gives μM); 100 nM dBET6, 5 hours; read-out: Cellular CRBN engagement EC50

Row | Compound | EC50 [µM]
29 | O=C1CCC(N2Cc3c(Nc4ccnc(N5CCN(c6cccc(C(F)(F)F)c6)CC5)n4)cccc3C2=O)C(=O)N1 (centres unmarked) [Compound 23, 3-(1-oxo-4-((2-(4-(3-(trifluoromethyl)phenyl)piperazin-1-yl)pyrimidin-4-yl)amino)isoindolin-2-yl)piperidine-2,6-dione] | 0.66
30 | CCN(Cc1ccccc1)c1nccc(Nc2cccc3c2CN(C2CCC(=O)NC2=O)C3=O)n1 (centres unmarked) [Compound 26, 3-(4-((2-(benzyl(ethyl)amino)pyrimidin-4-yl)amino)-1-oxoisoindolin-2-yl)piperidine-2,6-dione] | 0.67
31 | O=C1CCC(N2Cc3c(Nc4ccnc(-c5ccc(F)cc5)n4)cccc3C2=O)C(=O)N1 (centres unmarked) [Compound 39, 3-(4-((2-(4-fluorophenyl)pyrimidin-4-yl)amino)-1-oxoisoindolin-2-yl)piperidine-2,6-dione] | 0.742
32 | O=C1CCC(N2Cc3c(Nc4ccnc(Nc5ccc6c(c5)CCCC6)n4)cccc3C2=O)C(=O)N1 (centres unmarked) [Compound 52, 3-(1-oxo-4-((2-((5,6,7,8-tetrahydronaphthalen-2-yl)amino)pyrimidin-4-yl)amino)isoindolin-2-yl)piperidine-2,6-dione] | 0.46
